From patent publication US9011910B2, “Implantable tizanidine compositions and methods of treatment thereof” (Endo Pharmaceuticals Solutions Inc., priority 2011, dated 2015)
Structures can show the parent of a compound that is named as a salt. Where two headings read alike, the source gives them in different places.

Experiments:
[1] = 2% stearic acid; for in vitro elution rate: nine pellets, 100 mL PBS at 37° C.; for release rate: about 250 mg API, up to 36 weeks
Excerpt: In one embodiment of the present invention, tizanidine is delivered to the subject at a target range of about 100 micrograms/day to about 10,000 micrograms/day. For example, tizanidine is delivered to the subject at a target range of about 100 to about 5,000 micrograms/day, or about 200 to about 4,000 micrograms per day, or about 300 to about 3,000 micrograms per day or about 400 to about 2,000 micrograms per day. The testing method set forth in the examples to determine the elution rates for compositions comprising tizanidine includes placing the implants in an elution bath consisting of PBS or 0.9% saline at 37° C. Weekly exchanges of the elution media are then analyzed by HPLC for the durations given.
The implants were sterilized by gamma irradiation and placed in an elution bath consisting of 100 mL PBS at 37° C.
A discrete solid dosage form was prepared as follows. The drug implants were manufactured using PEBAX® 2533 and PEBAX® 3533, as the tubing material and tizanidine free base as the API. […] A total of about 250 mg tizanidine free base were loaded into the implant with 10% croscarmellose and 2% stearic acid. The implant were sterilized by gamma irradiation and placed in an elution batch consisting of 200 mL 0.9% saline at 37° C.
A discrete solid dosage form was prepared as follows. Various polyurethanes were used as the tubing material (i.e., TECOFLEX® EG-80A, TECOFLEX® EG-85A, TECOFLEX® EG-93A, TECOPHILIC® HP-60D-05, and TECOPHILIC® HP-60D-10 polyurethanes) and tizanidine hydrochloride as the API. […] A total of about 380 mg tizanidine hydrochloride were loaded into the implant with 10% croscarmellose and 2% stearic acid. The implants were sterilized by gamma irradiation and placed in an elution batch consisting of 200 mL PBS at 37° C. Weekly exchanges of the elution media were analyzed by HPLC over 5 weeks.
The drug implants were manufactured as described in Example 3, except tizanidine free base was used as the API instead of tizanidine HCl. […] A total of about 250 mg tizanidine free base were loaded into the implants with 10% croscarmellose and 2% stearic acid. The implants were sterilized by gamma irradiation and placed in an elution batch consisting of 200 mL PBS at 37° C. Weekly exchanges of the elution media were analyzed by HPLC for up to 36 weeks.

[2] = oral dosage form, approximate; cited from earlier work

Row | Structure (SMILES) | drug release from the implants (elution rate in vitro) ([1]; all polyurethanes investigated (TECOFLEX EG-80A, EG-85A, EG-93A, TECOPHILIC HP-60D-05, HP-60D-10), about 380 mg API, 10% croscarmellose, 200 mL PBS at 37° C., 5 weeks) | oral bioavailability [2] | in vitro elution rate ([1]; TECOFLEX EG-80A implant, 5% croscarmellose, 405 mg API, week 2) | in vitro elution rate ([1]; TECOFLEX EG-80A implant, 5% croscarmellose, 405 mg API, week 27) | in vitro elution rate ([1]; TECOFLEX EG-80A implant, 15% croscarmellose, 360 mg API, week 2) | in vitro elution rate ([1]; TECOFLEX EG-80A implant, 15% croscarmellose, 360 mg API, week 27) | release rate ([1]; TECOFLEX EG-80A implant, 10% croscarmellose, 200 mL PBS at 37° C.) | release rate ([1]; TECOFLEX EG-93A implant, 10% croscarmellose, 200 mL PBS at 37° C.)
1 | Clc1ccc2nsnc2c1NC1=NCCN1 [tizanidine HCl, tizanidine hydrochloride] | below 100 μg per day | 20-40% | – | – | – | – | – | –
2 | Clc1ccc2nsnc2c1NC1=NCCN1 [tizanidine free base, 5-chloro-N-(4,5-dihydro-1H-imidazol-2-yl)benzo[c][1,2,5]thiadiazol-4-amine] | – | – | about 1,200 μg/day | about 900 μg/day | about 1,400 μg/day | about 1,250 μg/day | about 900 μg per day | about 100 μg per day
